Assay results: US12708655B2, “Botanicals as WNT/beta-catenin activators, molecular pathway regulators, tissue regenerators and health biomarker regulators” (Arbor Life Holdings, Ltd., priority 2020, dated 2026)

Key:
[1] = test system: human dermal papilla cells; details: in vitro; cited from earlier work
androgen receptor = target: T1, androgen receptor (Homo sapiens, UniProt P10275); details: human dermal papilla cells; cited from earlier work
T1 construct: nuclear translocation of the androgen receptor stimulated by DHT in human dermal papilla cells; host or cells: human dermal papilla cells
T1 sequence (P10275 1-920): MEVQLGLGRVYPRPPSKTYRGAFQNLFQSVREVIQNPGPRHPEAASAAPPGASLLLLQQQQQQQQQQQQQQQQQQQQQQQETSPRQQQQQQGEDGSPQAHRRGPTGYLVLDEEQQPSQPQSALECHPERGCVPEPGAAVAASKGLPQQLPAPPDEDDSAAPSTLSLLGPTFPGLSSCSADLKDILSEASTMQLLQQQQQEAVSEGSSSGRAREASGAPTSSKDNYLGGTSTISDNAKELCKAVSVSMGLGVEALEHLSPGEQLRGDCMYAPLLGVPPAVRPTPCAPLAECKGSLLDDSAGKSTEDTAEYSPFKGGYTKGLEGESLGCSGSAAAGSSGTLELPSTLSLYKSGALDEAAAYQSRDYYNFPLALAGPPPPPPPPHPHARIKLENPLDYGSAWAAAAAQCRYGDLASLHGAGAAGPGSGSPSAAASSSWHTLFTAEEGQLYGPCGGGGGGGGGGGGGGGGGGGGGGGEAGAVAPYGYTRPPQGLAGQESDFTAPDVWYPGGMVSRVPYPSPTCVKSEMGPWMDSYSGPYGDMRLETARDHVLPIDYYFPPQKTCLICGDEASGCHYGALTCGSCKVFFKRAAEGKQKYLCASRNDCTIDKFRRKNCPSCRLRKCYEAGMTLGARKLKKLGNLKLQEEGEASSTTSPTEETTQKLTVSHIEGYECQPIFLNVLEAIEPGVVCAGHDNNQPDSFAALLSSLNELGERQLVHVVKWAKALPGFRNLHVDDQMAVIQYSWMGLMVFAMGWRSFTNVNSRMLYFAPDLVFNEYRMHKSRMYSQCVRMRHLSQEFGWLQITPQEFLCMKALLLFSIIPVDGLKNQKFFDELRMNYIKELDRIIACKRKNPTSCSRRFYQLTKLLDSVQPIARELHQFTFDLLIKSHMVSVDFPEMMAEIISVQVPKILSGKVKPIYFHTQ

[2] = test system: LNCaP prostate cancer cells; details: cells stimulated by DHT; cited from earlier work
[3] = test system: androgentic alopecia and telogen effluvium in Women; test: Comparative analysis of clinical trial results in women versus standard of care, adjusted to 24 weeks; type: in vivo, human
[4] = test system: androgentic alopecia and telogen effluvium in Women; details: adjusted to 24 weeks, from clinical trial or systematic review; cited from earlier work
[5] = test system: androgenetic alopecia and telogen effluvium in Men; details: adjusted to 24 weeks, cited from earlier work
[6] = test system: androgenetic alopecia and telogen effluvium in Men; test: Comparative analysis of clinical trial results in men versus standard of care, adjusted to 24 weeks; type: in vivo, human

Row | Structure (SMILES) | proliferation of human dermal papilla cells [1] | nuclear translocation of the androgen receptor stimulated by DHT (androgen receptor) | overgrowth of LNCaP prostate cancer cells [2] | Efficacy Factor Multiple vs 2% Minoxidil [3] | Changes in Terminal Hairs per sq.cm, difference between active and placebo groups [4] [per sq.cm] | Changes in Terminal Hairs per sq.cm vs placebo ([5]; from clinical trial or systematic review) [per sq.cm] | Changes in Terminal hair count per sq·cm versus placebo, comparators ([5]; systematic reviews of randomized controlled trials) [per sq·cm] | Efficacy Factor Multiple vs 2% Minoxidil [6]
1 | O=C(O)[C@H]1O[C@@H](Oc2cc3oc(-c4ccccc4)cc(=O)c3c(O)c2O)[C@H](O)[C@@H](O)[C@@H]1O [baicalin] | enhanced proliferation | inhibited | dose-dependently inhibited | – | – | – | – | –
2 | CC(C)(C)NC(=O)[C@H]1CC[C@H]2[C@@H]3CC[C@H]4NC(=O)C=C[C@]4(C)[C@H]3CC[C@]12C [finasteride 1 mg, finasteride] | – | – | – | −0.1 | −1.0 | 6.4 | 6.4 | 1.0
